These results are taken from patent US9481648B2, “Kinase inhibitors” (Respivert Limited, priority 2013, dated 2016).

The target in one series is GSK 3α (Homo sapiens (Human), UniProt P49840). Description: GSK 3α enzyme inhibition (FRET, Z-LYTE; Method 2). The following applies: read-out: IC50 Values for Enzyme Inhibition GSK3α. It counts as biochemical. In a few lines: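 Z-LYTE FRET assay: GSK3-α (500 ng/mL stock) preincubated 105 min at RT with compound at 10, 1, 0.1 or 0.01 μg/mL stock. FRET peptide (8 μM stock) and ATP (40 μM stock) were then added for 1 h, followed by protease development for 1 h. Phosphorylation was read as coumarin/fluorescein emission ratio.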
Sequence of GSK 3α (P49840 whole entry): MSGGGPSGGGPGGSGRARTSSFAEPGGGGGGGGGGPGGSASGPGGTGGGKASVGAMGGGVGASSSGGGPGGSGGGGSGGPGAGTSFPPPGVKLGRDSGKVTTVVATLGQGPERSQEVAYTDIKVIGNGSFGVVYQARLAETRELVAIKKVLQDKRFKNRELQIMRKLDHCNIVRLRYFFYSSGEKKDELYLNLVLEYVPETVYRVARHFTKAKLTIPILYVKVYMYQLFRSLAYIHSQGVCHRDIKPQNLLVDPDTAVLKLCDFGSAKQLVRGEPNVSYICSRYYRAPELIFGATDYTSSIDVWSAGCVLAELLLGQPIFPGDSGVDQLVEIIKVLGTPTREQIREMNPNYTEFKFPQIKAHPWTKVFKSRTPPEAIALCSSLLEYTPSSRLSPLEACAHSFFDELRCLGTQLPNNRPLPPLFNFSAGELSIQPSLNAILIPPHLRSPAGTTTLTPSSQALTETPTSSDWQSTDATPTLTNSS

The subject of series [1] is adoptive transfer (CD45RBhigh cells) colitis in SCID mice. In words: Adoptive transfer in mice (in vivo v). The following applies: for activity in T cell driven in vivo model of colonic inflammation (relative ratios of colon weight to length) / Colon weight:length / IFNγ level in colon tissue / IL-8 level in colon tissue / levels of pro-inflammatory cytokines in samples of colon tissue: adoptive transfer mouse model; for % Inhibition (of the induction window between naïve and vehicle animals): colon weight:length. The arrangement: species or system mouse. The procedure:
On Study day 0, female Balb/C mice are terminated and spleens obtained for CD45RB^high cell isolation (Using SCID IBD cell Separation protocol). Approximately 4×10^5 cells/mL CD45RB^high cells are then injected intraperitoneally (100 μL/mouse) into female SCID animals. On study day 14, mice are weighed and randomized into treatment groups based on body weight. On Day 14, compounds are administered BID, via oral gavage, in a peanut oil vehicle at the dose levels outlined below in Tables 6a and 6b and a dose volume of 5 mL/kg. Treatment continues until study day 42, at which point the animals are necropsied 4 hours after the morning administration. The colon length and weight are recorded and used as a secondary endpoint in the study as a measurement of colon oedema. The colon is then divided into six cross-sections, four of which are used for histopathology scoring (primary endpoint) and two are homogenised for cytokine analysis. Data shown is the % inhibition of the induction window between naïve animals and vehicle animals, where higher inhibition implies closer to the non-diseased, naïve, phenotype.

In series [2] the test system is β-catenin in d-U937 cells. In words: Accumulation of β catenin in d-U937 cells (assay m). Format: cell-based, human. Summed up: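 U937 cells were differentiated with PMA (100 ng/mL) for 48–72 hr, then treated with compound or vehicle for 18 hr. After formaldehyde fixation, β-catenin was detected with a primary antibody and an HRP secondary using TMB (OD450–655). Signal was normalised to crystal violet cell staining (OD595).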

In series [3] the test system is TNBS-induced colitis in BDF1 mice. In words: TNBS-induced colitis in mice (in vivo iv). The arrangement: species or system mouse. The following applies: for inflammatory cell infiltrate in the reticular and laminar propria zones / ulcer grade and epithelial repair compared to the vehicle control: 5 mg/kg orally, 2 days; for inflammatory cell infiltrate in the reticular and laminar propria zones / ulcer grade and epithelial repair compared to the vehicle control / activity in in vivo model of colonic inflammation (histopathology analysis): TNBS-induced colitis, mice; for LP inflammation / Ulcer grade: TNBS-induced colitis in mice; for activity in in vivo model of colonic inflammation (histopathology analysis): conducted over 2 days. The procedure:
Non-fasted, 10-12 week old, male BDF1 mice are dosed by oral gavage twice daily with either vehicle (5 mL/kg), reference item (Budesonide 2.5 mg/kg) or test compound (1 or 5 mg/kg) one day before (Day −1) stimulation of the inflammatory response by treatment with 2,4,6-trinitrobenzenesulphonic acid (TNBS) (15 mg/mL in 50% ethanol/50% saline). On Day 0 of the study TNBS (200 μL) is administered intra-colonically via a plastic catheter with BID dosing of the vehicle, reference or test compound continuing for 2 or 4 days. During the study, animals are weighed every day and stool observations are made and recorded as a score, based on stool consistency. At the time of sacrifice on Day 2 (or Day 4), the large intestine is removed and the length and weight recorded. Sections of the colon are taken for histopathology scoring to determine disease severity.

Series [4] deals with human ether a go-go (hERG) channel (Homo sapiens (Human), UniProt Q12809). Description: hERG inhibition (IonWorks patch clamp electrophysiology). It counts as cell-based. The following applies: IonWorks patch clamp. The procedure:
(§1) Compounds of the invention were tested for inhibition of the human ether a go-go (hERG) channel using IonWorks™ patch clamp electrophysiology at Essen Bioscience (Welwyn Garden City, England).
For orientation: The hERG channel carries a current that helps repolarise heart muscle cells.

In another series the target is hERG channel (Homo sapiens (Human), UniProt Q12809). Described as above. Format: cell-based. The following applies: human, 3 μM. As for the experimental part: as §1
Sequence of hERG channel (Q12809 whole entry): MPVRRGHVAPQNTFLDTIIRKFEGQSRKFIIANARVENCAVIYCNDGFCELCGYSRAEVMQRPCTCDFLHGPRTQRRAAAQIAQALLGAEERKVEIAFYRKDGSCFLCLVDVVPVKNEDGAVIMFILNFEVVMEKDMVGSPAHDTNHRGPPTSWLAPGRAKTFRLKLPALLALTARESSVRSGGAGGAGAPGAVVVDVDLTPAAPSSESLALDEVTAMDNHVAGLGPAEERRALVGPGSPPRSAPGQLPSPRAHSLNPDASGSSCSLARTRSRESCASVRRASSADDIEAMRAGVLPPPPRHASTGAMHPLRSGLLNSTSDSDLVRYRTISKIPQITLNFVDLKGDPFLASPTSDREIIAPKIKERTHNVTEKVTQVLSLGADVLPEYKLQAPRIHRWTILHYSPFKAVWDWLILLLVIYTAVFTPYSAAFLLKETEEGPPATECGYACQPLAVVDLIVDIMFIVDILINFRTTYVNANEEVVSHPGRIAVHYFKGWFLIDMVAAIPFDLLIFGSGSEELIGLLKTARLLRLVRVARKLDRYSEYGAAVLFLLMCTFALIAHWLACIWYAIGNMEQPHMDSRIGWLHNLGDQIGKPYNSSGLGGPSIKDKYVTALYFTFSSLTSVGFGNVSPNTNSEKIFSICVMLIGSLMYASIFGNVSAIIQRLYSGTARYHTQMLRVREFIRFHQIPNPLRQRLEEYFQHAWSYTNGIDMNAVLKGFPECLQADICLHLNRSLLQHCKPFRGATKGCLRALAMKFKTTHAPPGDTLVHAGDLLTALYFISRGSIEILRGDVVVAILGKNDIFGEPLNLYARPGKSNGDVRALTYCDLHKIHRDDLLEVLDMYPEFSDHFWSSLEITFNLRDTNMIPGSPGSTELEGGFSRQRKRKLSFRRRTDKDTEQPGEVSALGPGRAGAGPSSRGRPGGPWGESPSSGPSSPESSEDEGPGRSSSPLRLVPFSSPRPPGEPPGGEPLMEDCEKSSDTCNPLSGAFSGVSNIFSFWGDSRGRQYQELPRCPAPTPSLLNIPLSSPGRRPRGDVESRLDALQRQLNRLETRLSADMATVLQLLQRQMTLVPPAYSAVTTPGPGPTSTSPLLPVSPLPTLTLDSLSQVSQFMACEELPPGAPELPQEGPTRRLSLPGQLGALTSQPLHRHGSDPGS
Another series concerns the target CYP2C9 (Homo sapiens (Human), UniProt P11712). In words: CYP2C9 inhibition study. It counts as in vitro ADME. The following applies: for inhibition at 15 µM: human, read-out: 15 μM % Inh. The procedure: Assessment of certain in vitro ADME (absorption, distribution, metabolism, and excretion) parameters for certain compounds of the invention was conducted by BioFocus (Saffron Walden, UK).

Where two headings read alike, the source gives them in different places. Bounds are passed on as bounds.

Sequence of human ether a go-go (hERG) channel (Q12809 whole entry): as above
Sequence of CYP2C9 (P11712 whole entry): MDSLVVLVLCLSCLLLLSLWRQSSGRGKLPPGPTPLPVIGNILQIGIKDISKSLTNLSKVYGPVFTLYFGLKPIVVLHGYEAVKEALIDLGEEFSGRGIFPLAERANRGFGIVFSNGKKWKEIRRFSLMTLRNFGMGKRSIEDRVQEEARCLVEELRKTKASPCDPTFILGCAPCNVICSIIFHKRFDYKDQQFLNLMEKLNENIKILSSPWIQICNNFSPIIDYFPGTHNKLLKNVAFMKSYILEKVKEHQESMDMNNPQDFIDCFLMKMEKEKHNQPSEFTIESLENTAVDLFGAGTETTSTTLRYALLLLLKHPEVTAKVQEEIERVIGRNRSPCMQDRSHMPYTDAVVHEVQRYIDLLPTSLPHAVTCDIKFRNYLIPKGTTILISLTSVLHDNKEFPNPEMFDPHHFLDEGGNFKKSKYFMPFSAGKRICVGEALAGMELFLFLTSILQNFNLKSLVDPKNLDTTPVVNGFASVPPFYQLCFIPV

What is called IC50 is the midpoint of a concentration-inhibition curve. Regarding `COCCOCCOCCNC(=O)c1cc(Nc2cc(Oc3ccc(NC(=O)Nc4cc(C(C)(C)C)cc(NS(C)(=O)=O)c4OC)c4ccccc34)ccn2)cc(OC)c1` [Example 3, 3-((4-((4-(3-(5-(tert-Butyl)-2-methoxy-3-(methylsulfonamido)phenyl)ureido)naphthalen-1-yl)oxy)pyridin-2-yl)amino)-5-methoxy-N-(2-(2-(2-methoxyethoxy)ethoxy)ethyl)benzamide], the IC50 on GSK 3α was 4.32 µM. In addition, the “activity in T cell driven in vivo model of colonic inflammation (relative ratios of colon weight to length)” value in series [1] is “significant activity”. In series [1] (3 mg/kg BID oral), the “Colon weight:length” value is on record as 0.039 ± 0.003. The “% β-catenin induction” value in series [2] (test compound 1 μg/mL) was 0%. Moreover, the “% β-catenin induction” value in series [2] (test compound 5 μg/mL) is given as 4%. Further, the “% β-catenin induction” value in series [2] (test compound 10 μg/mL) came out at 4%. For the same compound, in series [3], the “inflammatory cell infiltrate in the reticular and laminar propria zones” value (shortened to “inflammatory cell infiltrate”) is “marked reduction”; the “ulcer grade and epithelial repair compared to the vehicle control” value is given as “marked improvements”; the “activity in in vivo model of colonic inflammation (histopathology analysis)” value (“activity … (histopathology analysis)” below) is “substantial activity”. In series [3] (5 mg/kg oral), this compound yielded an LP inflammation of 3.8 ± 0.5 and a Ulcer grade of 3.7 ± 0.4. In series [4], this compound registered a half-inhibitory concentration (IC50) above 3000 nM. Besides, the inhibition at 3 µM against hERG channel was -2 ± 2%.
As for `COCCOCCOCCOc1cc(Nc2nccc(Oc3ccc(NC(=O)Nc4cc(C(C)(C)C)cc(NS(C)(=O)=O)c4OC)c4ccccc34)n2)cc(OC)c1` [Example 4, N-(5-(tert-Butyl)-2-methoxy-3-(3-(4-((2-((3-methoxy-5-(2-(2-(2-methoxyethoxy)ethoxy)-ethoxy)phenyl)amino)pyrimidin-4-yl)oxy)naphthalen-1-yl)ureido)phenyl)methanesulfonamide], the concentration for half-maximal inhibition (IC50) was 2.66 µM on GSK 3α; above 15 µM against CYP2C9 (CYP2C9, 0 min preincubation); above 15 µM at CYP2C9 (CYP2C9, 30 min preincubation); above 3000 nM in series [4]. Also, the inhibition at 15 µM at CYP2C9 (CYP2C9, 0 min preincubation) stood at 24%; on CYP2C9 (CYP2C9, 30 min preincubation) it was 41%. Moreover, the “Colon weight:length” value in series [1] (0.3 mg/kg BID oral gavage) stood at 0.030 ± 0.008; in series [1] (1 mg/kg BID oral gavage), 0.020 ± 0.002. Moreover, the entries for the “% Inhibition (of the induction window between naïve and vehicle animals)” value in series [1] (0.3 mg/kg BID oral gavage) and in series [1] (1 mg/kg BID oral gavage) were 62% and 110%, respectively. Also, in series [1] (1 mg/kg), the “IFNγ level in colon tissue” value is given as 2.8 ± 0.8 pg/mL. In addition, the “IL-8 level in colon tissue” value in series [1] (1 mg/kg) is given as 53.3 ± 23.0 pg/mL. For the same compound, the “levels of pro-inflammatory cytokines in samples of colon tissue” value (from here on “levels of pro-inflammatory cytokines”) in series [1] was “significantly reduced”. For the same compound, the entries for the “% β-catenin induction” value in series [2] (test compound 1 μg/mL), in series [2] (test compound 5 μg/mL) and in series [2] (test compound 10 μg/mL) were 3%, 20% and 20%, respectively. Moreover, the “inflammatory cell infiltrate” value in series [3] is “marked reduction”. For the same compound, the “ulcer grade and epithelial repair compared to the vehicle control” value in series [3] is recorded as “marked improvements”. Further, the LP inflammation in series [3] (1 mg/kg oral) was found to be 2.6 ± 0.3. Also, in series [3] (1 mg/kg oral), the Ulcer grade amounted to 3.6 ± 0.4. In series [3], the “activity … (histopathology analysis)” value is on record as “substantial activity”. Also, the inhibition at 3 µM against hERG channel was -4 ± 2%.
For `C#Cc1cc(Nc2nccc(Oc3ccc(NC(=O)Nc4cc(C(C)(C)C)cc(NS(C)(=O)=O)c4OC)c4ccccc34)n2)cc(C(=O)NCCOCCOCCOC)c1` [Example 16], in series [1], the “activity in T cell driven in vivo model of colonic inflammation (relative ratios of colon weight to length)” value is reported as “significant activity” and the “levels of pro-inflammatory cytokines” value is listed as “significantly reduced”. In series [3], the “inflammatory cell infiltrate” value is on record as “marked reduction”; the “ulcer grade and epithelial repair compared to the vehicle control” value is on record as “marked improvements”; the “activity … (histopathology analysis)” value is listed as “substantial activity”.
As for `COc1cc(Nc2cc(Oc3ccc(NC(=O)Nc4cc(C(C)(C)C)cc(NS(C)(=O)=O)c4OC)c4ccccc34)ccn2)cc(C(=O)NCCN2CCOCC2)c1` [Example 27], the IC50 on GSK 3α is 4.5 µM; against CYP2C9 (CYP2C9, 0 min preincubation), above 15 µM; against CYP2C9 (CYP2C9, 30 min preincubation), above 13 µM; in series [4] it was above 3000 nM. Moreover, the inhibition at 15 µM came out at 13% at CYP2C9 (CYP2C9, 0 min preincubation) and 55% at CYP2C9 (CYP2C9, 30 min preincubation). In addition, the “Colon weight:length” value in series [1] (3 mg/kg BID oral gavage) came out at 0.022 ± 0.002; in series [1] (0.03 mg/kg BID oral), 0.047 ± 0.005; in series [1] (0.3 mg/kg BID oral), 0.038 ± 0.004; in series [1] (3 mg/kg BID oral) it was 0.034 ± 0.003. Also, in series [1] (3 mg/kg BID oral gavage), the “% Inhibition (of the induction window between naïve and vehicle animals)” value came out at 99%. Also, the “IFNγ level in colon tissue” value in series [1] (3 mg/kg) is on record as 19.1 ± 6.5 pg/mL. Moreover, the “IL-8 level in colon tissue” value in series [1] (3 mg/kg) was 131.1 ± 56.1 pg/mL. In addition, the “levels of pro-inflammatory cytokines” value in series [1] is on record as “significantly reduced”. For the same compound, the “% β-catenin induction” value in series [2] (test compound 1 μg/mL) was −12%; in series [2] (test compound 5 μg/mL), −7%; in series [2] (test compound 10 μg/mL), −1%. In addition, the “inflammatory cell infiltrate” value in series [3] was “marked reduction”. In addition, in series [3], the “ulcer grade and epithelial repair compared to the vehicle control” value is “marked improvements”. Moreover, the LP inflammation in series [3] (5 mg/kg oral) worked out at 3.2 ± 0.4. Also, the Ulcer grade in series [3] (5 mg/kg oral) was 3.3 ± 0.5. In series [3], the “activity … (histopathology analysis)” value was “substantial activity”. The inhibition at 3 µM against hERG channel is -3 ± 5%.
Take `COc1c(NC(=O)Nc2ccc(Oc3ccnc(Nc4ccccc4)c3)c3ccccc23)cc(C(C)(C)C)cc1C(=O)NC1COC1` [Example 75, 5-(tert-Butyl)-2-methoxy-N-(oxetan-3-yl)-3-(3-(4-((2-(phenylamino)pyridin-4-yl)oxy)-naphthalen-1-yl)ureido)benzamide]: the IC50 was 6.03 µM at GSK 3α; above 15 µM on CYP2C9 (CYP2C9, 0 min preincubation); above 15 µM against CYP2C9 (CYP2C9, 30 min preincubation); above 3000 nM in series [4]. The inhibition at 15 µM at CYP2C9 (CYP2C9, 0 min preincubation) is 20%; on CYP2C9 (CYP2C9, 30 min preincubation), 36%. Moreover, the “% β-catenin induction” value is on record as 3% in series [2] (test compound 1 μg/mL), 25% in series [2] (test compound 5 μg/mL) and 30% in series [2] (test compound 10 μg/mL). Moreover, the “inflammatory cell infiltrate” value in series [3] is listed as “marked reduction”. Besides, the “ulcer grade and epithelial repair compared to the vehicle control” value in series [3] was “marked improvements”. Also, in series [3] (5 mg/kg oral), the LP inflammation stood at 2.3 ± 0.4. This compound also yielded a Ulcer grade in series [3] (5 mg/kg oral) of 3.0 ± 0.4. In addition, the “activity … (histopathology analysis)” value in series [3] is listed as “substantial activity”. In addition, on hERG channel, the inhibition at 3 µM amounted to 0%.
